# Reference: patent publication US20240398812A1 (Caraway Therapeutics, Inc., priority 2021, published 2024)
# Assays:
# Format in all cases: cell-based
# TRPML3 = biological target: T1, TRPML3 (Homo sapiens, UniProt Q8TDD5); test: Fluorescent TRPML3 assay (as for TRPML1)
# T1 construct: expressed in transfected cells
# T1 sequence (Q8TDD5 1-553): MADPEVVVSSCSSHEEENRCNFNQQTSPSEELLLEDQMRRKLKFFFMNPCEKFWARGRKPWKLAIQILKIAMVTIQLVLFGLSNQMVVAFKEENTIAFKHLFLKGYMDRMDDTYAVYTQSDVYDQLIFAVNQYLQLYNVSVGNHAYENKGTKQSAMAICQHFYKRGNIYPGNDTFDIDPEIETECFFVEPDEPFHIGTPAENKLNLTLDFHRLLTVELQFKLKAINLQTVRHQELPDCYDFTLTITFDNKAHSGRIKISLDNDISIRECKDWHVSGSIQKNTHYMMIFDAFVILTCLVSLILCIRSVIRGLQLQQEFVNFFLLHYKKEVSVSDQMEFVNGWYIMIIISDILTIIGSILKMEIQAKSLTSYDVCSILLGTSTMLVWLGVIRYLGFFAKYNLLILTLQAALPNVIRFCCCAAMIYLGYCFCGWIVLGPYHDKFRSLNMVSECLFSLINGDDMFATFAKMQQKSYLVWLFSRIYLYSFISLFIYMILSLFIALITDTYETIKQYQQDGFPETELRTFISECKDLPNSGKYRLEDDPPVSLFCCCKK
# Outline: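 HEK-293 Trex cells with tet-inducible (0.5 ug/mL doxycycline, overnight) surface-targeted mutant channel, Fluo4-AM loaded, suspended in Ringer's with 10 mM calcium. Compounds tested 20 µM to 6 nM final, half-log steps, triplicate; fluorescence at ex 480/em 540 nm. EC50 by non-linear regression of percent activity versus plate controls.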
# TRPML2 = biological target: T2, TRPML2 (Homo sapiens, UniProt Q8IZK6); test: Fluorescent TRPML2 assay (as for TRPML1)
# T2 construct: expressed in transfected cells
# T2 sequence (Q8IZK6 1-566): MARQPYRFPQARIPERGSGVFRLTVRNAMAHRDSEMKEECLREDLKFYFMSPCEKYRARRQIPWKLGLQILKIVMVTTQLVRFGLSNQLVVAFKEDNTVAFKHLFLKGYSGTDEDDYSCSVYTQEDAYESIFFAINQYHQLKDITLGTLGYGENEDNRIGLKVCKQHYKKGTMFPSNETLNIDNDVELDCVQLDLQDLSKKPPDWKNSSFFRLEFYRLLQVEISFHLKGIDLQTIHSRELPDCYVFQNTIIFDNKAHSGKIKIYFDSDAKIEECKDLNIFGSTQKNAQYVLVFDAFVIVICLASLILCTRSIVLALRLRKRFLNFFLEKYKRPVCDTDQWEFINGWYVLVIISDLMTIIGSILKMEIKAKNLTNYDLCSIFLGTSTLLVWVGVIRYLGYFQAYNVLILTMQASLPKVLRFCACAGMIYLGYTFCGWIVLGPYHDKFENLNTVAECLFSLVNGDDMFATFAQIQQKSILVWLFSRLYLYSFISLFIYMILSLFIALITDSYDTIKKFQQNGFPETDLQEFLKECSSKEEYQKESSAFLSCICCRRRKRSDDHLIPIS
# Description: HEK-293 Trex cells were stably transfected with a construct consisting of the human coding sequence for TRPML1 cloned into the tet-inducible plasmid pCDNA5 T/O. Mutations were introduced into the TRPML1 sequence to facilitate expression on the cell surface (Silvia Vergarajauregui, Rosa Puertollano Traffic. 2006 March; 7 (3): 337-353). Briefly, the cells are cultured in 150 mm round tissue culture dishes containing 20 mL of media. The day before the assay the cells are rinsed with DPBS —Ca—Mg and then treated briefly with Trypsin-EDTA. The Trypsin-EDTA is diluted with growth media, and cells are counted. 38×10^6 cells are re-plated into 150 mm round tissue culture dishes in media containing 0.5 ug/mL doxycycline to induce expression of hTRPML1.
# The day of the experiment cells are lifted from the plates as above and collected by centrifugation. The cells are then suspended in dye loading buffer consisting of Ringer's solution supplemented with 0.1% Pluronic Acid and 1 micromolar Fluo4-AM dye. Cells are loaded for ˜60 minutes in the dark with occasional mixing. The cells are collected by centrifugation, the loading media aspirated, and the cells resuspended in 25 mL Ringer's solution and incubated ˜60 minutes in the dark. The cells are again collected by centrifugation, rinsed in Ringer's Solution and resuspended to 0.2×10^6 cells/mL in modified Ringer's solution containing 10 mM calcium.
# Compounds are dissolved to a concentration of 10 millimolar with DMSO. Compound plates are created by dispensing compounds into 384 well black wall clear bottom plates (Greiner 781091). Positive and negative controls are included on each plate. Typically, different amounts of each compound are tested ranging from 100 nanoMoles (20 micromolar final concentration) decreasing in half-log steps to 31 picoMoles (6 nanomolar final concentration). Each concentration is typically tested in triplicate.
# 50 microliters of dye-loaded cells are dispensed into each well of the compound assay plate created above. The fluorescence in each well is then determined with an excitation wavelength of 480 nm and an emission wavelength of 540 nm using either a Molecular Devices SpectraMax multimode plate reader or a Hamamatsu FDSS/uCell plate imager.
# The resulting fluorescence for each well is exported as an ascii file and loaded into our LIMS for analysis. The percent activity of each compound at each concentration is determined by comparison to the positive and negative control wells included in each plate.
# Assays for TRPML2 and TRPML3 were performed as above for TRPML1, by substituting the appropriate TRPML2 or TRPML3 subtype for the TRPML1.
# EC50 values were calculated using a non-linear regression of Prism. In the table, “A” indicates an EC50 of less than 100 nM, “B” indicates an EC50 range from 100 nM to 500 nM; “C” indicates an EC50 range from 500 nM to 2 μM; and “D” indicates an EC50 greater than 2 μM.
# human TRPML1 = human TRPML1 (Homo sapiens, UniProt Q9GZU1); test: Fluorescent TRPML1 assay (Fluo4-AM calcium fluorescence, HEK-293 Trex cells)
# Outline: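 Tet-inducible HEK-293 Trex cells stably expressing surface-targeted mutant human TRPML1, induced with 0.5 ug/mL doxycycline overnight, loaded with Fluo4-AM and suspended in Ringer's with 10 mM calcium. Compounds tested from 20 μM to 6 nM final, half-log steps, in triplicate; fluorescence (ex 480/em 540) normalised to plate controls, EC50 by non-linear regression.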
# Chain of human TRPML1 (Q9GZU1 whole entry L15A/L16A/L577A/L578A, form open): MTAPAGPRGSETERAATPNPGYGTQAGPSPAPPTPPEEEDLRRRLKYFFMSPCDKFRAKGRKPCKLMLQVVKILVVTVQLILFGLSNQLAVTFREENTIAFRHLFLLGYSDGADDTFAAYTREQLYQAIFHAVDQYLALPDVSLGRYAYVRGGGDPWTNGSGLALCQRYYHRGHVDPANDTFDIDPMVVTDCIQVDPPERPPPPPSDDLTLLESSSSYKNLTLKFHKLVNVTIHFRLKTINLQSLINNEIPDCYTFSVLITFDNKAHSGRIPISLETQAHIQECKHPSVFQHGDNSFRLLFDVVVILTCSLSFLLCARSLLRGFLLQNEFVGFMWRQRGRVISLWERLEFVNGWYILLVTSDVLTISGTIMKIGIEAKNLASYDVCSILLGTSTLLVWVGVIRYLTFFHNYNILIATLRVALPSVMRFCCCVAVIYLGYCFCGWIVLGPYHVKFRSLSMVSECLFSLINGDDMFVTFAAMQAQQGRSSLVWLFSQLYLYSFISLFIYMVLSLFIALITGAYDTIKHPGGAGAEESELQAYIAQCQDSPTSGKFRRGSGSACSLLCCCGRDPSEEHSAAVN
SMILES,"EC50 (TRPML3; Table 3, compounds 101-177)","EC50 (TRPML2; Table 3, compounds 101-177)","EC50 (human TRPML1; Table 3, compounds 101-177)","EC50 (TRPML3; Table 3, compounds 201-283)","EC50 (TRPML2; Table 3, compounds 201-283)","EC50 (human TRPML1; Table 3, compounds 201-283)"
"C[C@@H]1CN(c2cn(-c3cc(C#N)ccn3)c3ncnc(N4CCN(C(=O)CC(C)(C)C)C[C@@H]4C)c23)CCO1 [Compound 165, 2-(4-((S)-4-(3,3-dimethylbutanoyl)-2-methylpiperazin-1-yl)-5-((R)-2-methylmorpholino)-7H-pyrrolo[2,3-d]pyrimidin-7-yl)isonicotinonitrile]",< 100 nM,100 to 500 nM,< 100 nM,,,
"COC(C)(C)C(=O)N1C[C@H](C)N(c2ncnc3c2c(C(F)(F)F)cn3-c2cccc(F)c2)C[C@H]1C [Compound 223, 1-((2R,5S)-4-(7-(3-fluorophenyl)-5-(trifluoromethyl)-7H-pyrrolo[2,3-d]pyrimidin-4-yl)-2,5-dimethylpiperazin-1-yl)-2-methoxy-2-methylpropan-1-one]",,,,100 to 500 nM,> 2000 nM,< 100 nM
"C[C@@H]1CN(c2ncnc3c2c(C2CC2)cn3-c2cc(C#N)ccn2)CCN1C(=O)C(C)(C)C [Compound 122, (R)-2-(5-cyclopropyl-4-(3-methyl-4-pivaloylpiperazin-1-yl)-7H-pyrrolo[2,3-d]pyrimidin-7-yl)isonicotinonitrile]",100 to 500 nM,100 to 500 nM,< 100 nM,,,
"CC(C)C(=O)N1C[C@H](C)N(c2ncnc3c2c(-c2ccccc2F)cn3-c2cc(C#N)ccn2)C[C@H]1C [Compound 139, 2-(5-(2-fluorophenyl)-4-((2S,5R)-4-isobutyryl-2,5-dimethylpiperazin-1-yl)-7H-pyrrolo[2,3-d]pyrimidin-7-yl)isonicotinonitrile]",< 100 nM,< 100 nM,< 100 nM,,,
"CC(C)C(=O)N1CCN(c2ncnc3c2c(-c2ccccc2F)cn3-c2cc(C#N)ccn2)C[C@H]1C [Compound 107, (R)-2-(5-(2-fluorophenyl)-4-(4-isobutyryl-3-methylpiperazin-1-yl)-7H-pyrrolo[2,3-d]pyrimidin-7-yl)isonicotinonitrile]",< 100 nM,100 to 500 nM,< 100 nM,,,
"COC(C)(C)C(=O)N1C[C@H](C)N(c2ncnc3c2c(N2CCC2)cn3-c2cc(C#N)ccn2)C[C@H]1C [Compound 268, 2-(5-(azetidin-1-yl)-4-((2S,5R)-4-(2-methoxy-2-methylpropanoyl)-2,5-dimethylpiperazin-1-yl)-7H-pyrrolo[2,3-d]pyrimidin-7-yl)isonicotinonitrile]",,,,< 100 nM,500 to 2000 nM,< 100 nM
"C[C@@H]1CN(c2ncnc3c2c(C2CCC2)cn3-c2cccc(Cl)c2)[C@@H](C)CN1C(=O)C(C)(C)C(F)(F)F [Compound 257, 1-((2R,5S)-4-(7-(3-chlorophenyl)-5-cyclobutyl-7H-pyrrolo[2,3-d]pyrimidin-4-yl)-2,5-dimethylpiperazin-1-yl)-3,3,3-trifluoro-2,2-dimethylpropan-1-one]",,,,500 to 2000 nM,100 to 500 nM,< 100 nM
"C[C@@H]1CN(c2ncnc3c2c(C2CCC2)cn3-c2cc(F)cc(F)c2)[C@@H](C)CN1C(=O)CC(C)(C)C(F)(F)F [Compound 256, 1-((2R,5S)-4-(5-cyclobutyl-7-(3,5-difluorophenyl)-7H-pyrrolo[2,3-d]pyrimidin-4-yl)-2,5-dimethylpiperazin-1-yl)-4,4,4-trifluoro-3,3-dimethylbutan-1-one]",,,,500 to 2000 nM,> 2000 nM,500 to 2000 nM
"C[C@@H]1CN(c2ncnc3c2c(-c2ccccc2F)cn3-c2cc(F)ccn2)[C@@H](C)CN1C(=O)C1(F)CC1 [Compound 247, (1-fluorocyclopropyl)((2R,5S)-4-(5-(2-fluorophenyl)-7-(4-fluoropyridin-2-yl)-7H-pyrrolo[2,3-d]pyrimidin-4-yl)-2,5-dimethylpiperazin-1-yl)methanone]",,,,500 to 2000 nM,500 to 2000 nM,< 100 nM
"C[C@@H]1CN(c2ncnc3c2c(-c2ccccc2F)cn3-c2cc(C#N)ccn2)CCN1C(=O)C(C)(C)F [Compound 126, (R)-2-(4-(4-(2-fluoro-2-methylpropanoyl)-3-methylpiperazin-1-yl)-5-(2-fluorophenyl)-7H-pyrrolo[2,3-d]pyrimidin-7-yl)isonicotinonitrile]",< 100 nM,100 to 500 nM,< 100 nM,,,
"C[C@@H]1CN(c2ncnc3c2c(N2CCC2)cn3-c2cc(C#N)ccn2)[C@@H](C)CN1C(=O)C(C)(C)C [Compound 276, 2-(5-(azetidin-1-yl)-4-((2S,5R)-2,5-dimethyl-4-pivaloylpiperazin-1-yl)-7H-pyrrolo[2,3-d]pyrimidin-7-yl)isonicotinonitrile]",,,,< 100 nM,100 to 500 nM,< 100 nM
"C[C@@H]1CN(c2ncnc3c2c(C2CCC2)cn3-c2cccc(C(F)(F)F)c2)[C@@H](C)CN1C(=O)C(C)(C)C(F)(F)F [Compound 263, 1-((2R,5S)-4-(5-cyclobutyl-7-(3-(trifluoromethyl)phenyl)-7H-pyrrolo[2,3-d]pyrimidin-4-yl)-2,5-dimethylpiperazin-1-yl)-3,3,3-trifluoro-2,2-dimethylpropan-1-one]",,,,< 100 nM,500 to 2000 nM,100 to 500 nM
"C[C@@H]1CN(c2ncnc3c2c(C2CCC2)cn3-c2cccc(Cl)c2)[C@@H](C)CN1C(=O)CC(C)(C)C(F)(F)F [Compound 258, 1-((2R,5S)-4-(7-(3-chlorophenyl)-5-cyclobutyl-7H-pyrrolo[2,3-d]pyrimidin-4-yl)-2,5-dimethylpiperazin-1-yl)-4,4,4-trifluoro-3,3-dimethylbutan-1-one]",,,,100 to 500 nM,500 to 2000 nM,100 to 500 nM
"C[C@@H]1CN(c2ncnc3c2c(-c2ccccc2F)cn3-c2cc(C#N)ccn2)[C@@H](C)CN1C(=O)C(C)(C)C [Compound 230, 2-(4-((2S,5R)-2,5-dimethyl-4-pivaloylpiperazin-1-yl)-5-(2-fluorophenyl)-7H-pyrrolo[2,3-d]pyrimidin-7-yl)isonicotinonitrile]",,,,< 100 nM,< 100 nM,< 100 nM
